{"source": "paper PMC9150124", "about": "“Design of a Potent, Selective, and Brain-Penetrant Inhibitor of Wnt-Deactivating Enzyme Notum by Optimization of a Crystallographic Fragment Hit” (Journal of Medicinal Chemistry, 2022)", "key": {"Wnt signaling": {"tested_on": "Wnt signaling", "assay": "TCF/LEF reporter (Luciferase) assay in the absence of Notum", "format": "cell-based", "conditions": "up to 10 μM; n = 4", "description": "Figure S10. Notum TCF/LEF reporter (Luciferase) data with WNT3A (100 ng/mL) in the absence of Notum.\nExamples are from different\nAdditional inhibition -concentration curves for compounds 6-9 will be made available upon reasonable request."}, "[1]": {"biological_target": "kinase named in conditions (Homo sapiens, UniProt O00750)", "assay": "SelectScreen kinase profiling, SSBK Adapta SP Technology", "format": "biochemical", "conditions": "PIK3C2B (PI3K-C2 beta), 10 μM"}, "[2]": {"biological_target": "kinase named in conditions (Homo sapiens, UniProt P42336, E542K)", "assay": "SelectScreen kinase profiling, SSBK Adapta SP Technology", "format": "biochemical", "conditions": "PIK3CA E542K/PIK3R1 (p110 alpha E542K/p85 alpha), 10 μM"}, "[3]": {"biological_target": "kinase named in conditions (Homo sapiens, UniProt P42336, E545K)", "assay": "SelectScreen kinase profiling, SSBK Adapta SP Technology", "format": "biochemical", "conditions": "PIK3CA E545K/PIK3R1 (p110 alpha E545K/p85 alpha), 10 μM"}, "[4]": {"biological_target": "kinase named in conditions (Homo sapiens, UniProt P50613)", "assay": "SelectScreen kinase profiling, SSBK Adapta SP Technology", "format": "biochemical", "conditions": "CDK7/cyclin H/MNAT1, 10 μM"}, "[5]": {"biological_target": "kinase named in conditions (Homo sapiens, UniProt P50750)", "assay": "SelectScreen kinase profiling, SSBK Adapta SP Technology", "format": "biochemical", "conditions": "CDK9/cyclin T1, 10 μM"}, "[6]": {"biological_target": "kinase named in conditions (Homo sapiens, UniProt Q5S007)", "assay": "SelectScreen kinase profiling, SSBK Adapta SP Technology", "format": "biochemical", "conditions": "LRRK2 FL, 10 μM"}, "[7]": {"biological_target": "kinase named in conditions (Homo sapiens, UniProt Q5S007, G2019S)", "assay": "SelectScreen kinase profiling, SSBK Adapta SP Technology", "format": "biochemical", "conditions": "LRRK2 G2019S FL, 10 μM"}, "[8]": {"biological_target": "kinase named in conditions (Homo sapiens, UniProt Q8TF76)", "assay": "SelectScreen kinase profiling, SSBK Adapta SP Technology", "format": "biochemical", "conditions": "GSG2 (Haspin), 10 μM"}, "[9]": {"biological_target": "kinase named in conditions (Homo sapiens, UniProt Q99755)", "assay": "SelectScreen kinase profiling, SSBK Adapta SP Technology", "format": "biochemical", "conditions": "PIP5K1A, 10 μM"}, "[10]": {"biological_target": "kinase named in conditions (Homo sapiens, UniProt Q9BTU6)", "sequence (Q9BTU6 whole entry)": "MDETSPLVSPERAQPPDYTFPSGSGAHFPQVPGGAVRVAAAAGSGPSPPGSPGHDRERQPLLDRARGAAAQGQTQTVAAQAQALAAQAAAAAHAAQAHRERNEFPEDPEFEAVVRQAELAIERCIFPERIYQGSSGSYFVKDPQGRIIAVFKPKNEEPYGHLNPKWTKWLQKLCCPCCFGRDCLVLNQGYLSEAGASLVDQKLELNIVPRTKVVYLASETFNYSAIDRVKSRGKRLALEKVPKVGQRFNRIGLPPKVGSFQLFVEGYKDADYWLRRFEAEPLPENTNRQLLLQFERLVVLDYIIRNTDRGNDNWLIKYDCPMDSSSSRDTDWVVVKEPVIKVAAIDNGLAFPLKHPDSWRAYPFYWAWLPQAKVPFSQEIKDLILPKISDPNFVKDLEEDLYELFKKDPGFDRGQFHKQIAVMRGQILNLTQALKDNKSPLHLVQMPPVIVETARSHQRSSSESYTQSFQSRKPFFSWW", "assay": "SelectScreen kinase profiling, SSBK Adapta SP Technology", "format": "biochemical", "conditions": "PI4K2A (PI4K2 alpha), 10 μM"}, "[11]": {"tested_on": "kinase named in conditions", "assay": "SelectScreen kinase profiling, SSBK Adapta SP Technology", "format": "biochemical"}, "[12]": {"biological_target": "kinase named in conditions (Homo sapiens, UniProt P00519, Q252H)", "assay": "SelectScreen kinase profiling, SSBK LanthaScreen Binding SP Technology", "conditions": "ABL1 Q252H, 10 μM", "description": "(§1) Kinase selectivity screening was performed by Thermo Fisher Scientific (Paisley, U.K.) in their SelectScreen Biochemical Kinase Profiling Service. Assay information and data are presented in the Supporting Information.\n(§2) Kinase selectivity screening was performed by ThermoFisher Scientific (Paisley, U.K.) in their SelectScreenTM\n(§3) Biochemical Kinase Profiling service .\n(§4) Illustration reproduced courtesy of Cell Signaling technology, Inc.\n(§5) (B) Illustration of phylogenetic tree of kinases screened."}, "[13]": {"biological_target": "kinase named in conditions (Homo sapiens, UniProt P07949, M918T)", "sequence (P07949 29-1114 M918T)": "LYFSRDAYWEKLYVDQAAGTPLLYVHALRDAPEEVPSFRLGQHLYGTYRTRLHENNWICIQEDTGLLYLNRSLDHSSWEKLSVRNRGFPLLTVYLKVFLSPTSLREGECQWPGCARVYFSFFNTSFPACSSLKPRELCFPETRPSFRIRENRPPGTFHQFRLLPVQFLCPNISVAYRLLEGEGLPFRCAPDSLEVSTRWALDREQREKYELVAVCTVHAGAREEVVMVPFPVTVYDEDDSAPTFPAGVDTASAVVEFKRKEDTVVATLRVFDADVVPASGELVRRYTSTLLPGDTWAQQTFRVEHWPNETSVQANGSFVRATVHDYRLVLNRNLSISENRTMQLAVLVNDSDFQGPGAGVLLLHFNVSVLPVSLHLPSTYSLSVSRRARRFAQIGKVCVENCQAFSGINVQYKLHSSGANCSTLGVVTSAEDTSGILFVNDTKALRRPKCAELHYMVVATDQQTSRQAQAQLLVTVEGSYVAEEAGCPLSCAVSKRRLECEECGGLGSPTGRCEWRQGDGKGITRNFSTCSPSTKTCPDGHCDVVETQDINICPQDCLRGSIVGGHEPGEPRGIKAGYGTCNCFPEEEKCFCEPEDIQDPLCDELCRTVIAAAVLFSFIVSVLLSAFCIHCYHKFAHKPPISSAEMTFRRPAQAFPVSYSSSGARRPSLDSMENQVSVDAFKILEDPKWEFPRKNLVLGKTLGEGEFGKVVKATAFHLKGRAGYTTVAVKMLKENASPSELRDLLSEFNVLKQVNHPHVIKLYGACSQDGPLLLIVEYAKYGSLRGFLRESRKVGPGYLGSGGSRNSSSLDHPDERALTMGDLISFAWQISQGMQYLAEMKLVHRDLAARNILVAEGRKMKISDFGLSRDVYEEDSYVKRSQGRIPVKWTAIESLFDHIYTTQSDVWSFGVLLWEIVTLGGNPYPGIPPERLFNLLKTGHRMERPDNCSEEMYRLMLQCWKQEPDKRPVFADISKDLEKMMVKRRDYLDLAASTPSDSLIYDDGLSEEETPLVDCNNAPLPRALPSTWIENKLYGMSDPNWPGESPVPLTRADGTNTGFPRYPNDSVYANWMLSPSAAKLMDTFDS", "assay": "SelectScreen kinase profiling, SSBK LanthaScreen Binding SP Technology", "conditions": "RET M918T, 10 μM", "description": "as §1, §2, §3, §4, §5"}, "[14]": {"biological_target": "kinase named in conditions (Homo sapiens, UniProt Q00526)", "sequence (Q00526 whole entry)": "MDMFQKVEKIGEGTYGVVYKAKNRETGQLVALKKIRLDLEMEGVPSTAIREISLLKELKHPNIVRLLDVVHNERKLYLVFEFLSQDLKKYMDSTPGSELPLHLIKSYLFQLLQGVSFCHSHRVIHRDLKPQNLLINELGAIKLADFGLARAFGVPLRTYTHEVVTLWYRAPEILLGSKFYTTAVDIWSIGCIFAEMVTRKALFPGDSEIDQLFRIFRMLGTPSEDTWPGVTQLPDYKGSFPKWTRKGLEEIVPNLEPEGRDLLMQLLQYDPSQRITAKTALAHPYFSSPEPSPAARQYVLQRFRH", "assay": "SelectScreen kinase profiling, SSBK LanthaScreen Binding SP Technology", "conditions": "CDK3/cyclin E1, 10 μM", "description": "as §1, §2, §3, §4, §5"}, "[15]": {"biological_target": "kinase named in conditions (Homo sapiens, UniProt Q13873)", "assay": "SelectScreen kinase profiling, SSBK LanthaScreen Binding SP Technology", "conditions": "BMPR2, 10 μM", "description": "as §1, §2, §3, §4, §5"}, "[16]": {"biological_target": "kinase named in conditions (Homo sapiens, UniProt Q2M2I8)", "assay": "SelectScreen kinase profiling, SSBK LanthaScreen Binding SP Technology", "conditions": "AAK1, 10 μM", "description": "as §1, §2, §3, §4, §5"}, "[17]": {"biological_target": "kinase named in conditions (Homo sapiens, UniProt Q8NEV4)", "sequence (Q8NEV4 whole entry)": "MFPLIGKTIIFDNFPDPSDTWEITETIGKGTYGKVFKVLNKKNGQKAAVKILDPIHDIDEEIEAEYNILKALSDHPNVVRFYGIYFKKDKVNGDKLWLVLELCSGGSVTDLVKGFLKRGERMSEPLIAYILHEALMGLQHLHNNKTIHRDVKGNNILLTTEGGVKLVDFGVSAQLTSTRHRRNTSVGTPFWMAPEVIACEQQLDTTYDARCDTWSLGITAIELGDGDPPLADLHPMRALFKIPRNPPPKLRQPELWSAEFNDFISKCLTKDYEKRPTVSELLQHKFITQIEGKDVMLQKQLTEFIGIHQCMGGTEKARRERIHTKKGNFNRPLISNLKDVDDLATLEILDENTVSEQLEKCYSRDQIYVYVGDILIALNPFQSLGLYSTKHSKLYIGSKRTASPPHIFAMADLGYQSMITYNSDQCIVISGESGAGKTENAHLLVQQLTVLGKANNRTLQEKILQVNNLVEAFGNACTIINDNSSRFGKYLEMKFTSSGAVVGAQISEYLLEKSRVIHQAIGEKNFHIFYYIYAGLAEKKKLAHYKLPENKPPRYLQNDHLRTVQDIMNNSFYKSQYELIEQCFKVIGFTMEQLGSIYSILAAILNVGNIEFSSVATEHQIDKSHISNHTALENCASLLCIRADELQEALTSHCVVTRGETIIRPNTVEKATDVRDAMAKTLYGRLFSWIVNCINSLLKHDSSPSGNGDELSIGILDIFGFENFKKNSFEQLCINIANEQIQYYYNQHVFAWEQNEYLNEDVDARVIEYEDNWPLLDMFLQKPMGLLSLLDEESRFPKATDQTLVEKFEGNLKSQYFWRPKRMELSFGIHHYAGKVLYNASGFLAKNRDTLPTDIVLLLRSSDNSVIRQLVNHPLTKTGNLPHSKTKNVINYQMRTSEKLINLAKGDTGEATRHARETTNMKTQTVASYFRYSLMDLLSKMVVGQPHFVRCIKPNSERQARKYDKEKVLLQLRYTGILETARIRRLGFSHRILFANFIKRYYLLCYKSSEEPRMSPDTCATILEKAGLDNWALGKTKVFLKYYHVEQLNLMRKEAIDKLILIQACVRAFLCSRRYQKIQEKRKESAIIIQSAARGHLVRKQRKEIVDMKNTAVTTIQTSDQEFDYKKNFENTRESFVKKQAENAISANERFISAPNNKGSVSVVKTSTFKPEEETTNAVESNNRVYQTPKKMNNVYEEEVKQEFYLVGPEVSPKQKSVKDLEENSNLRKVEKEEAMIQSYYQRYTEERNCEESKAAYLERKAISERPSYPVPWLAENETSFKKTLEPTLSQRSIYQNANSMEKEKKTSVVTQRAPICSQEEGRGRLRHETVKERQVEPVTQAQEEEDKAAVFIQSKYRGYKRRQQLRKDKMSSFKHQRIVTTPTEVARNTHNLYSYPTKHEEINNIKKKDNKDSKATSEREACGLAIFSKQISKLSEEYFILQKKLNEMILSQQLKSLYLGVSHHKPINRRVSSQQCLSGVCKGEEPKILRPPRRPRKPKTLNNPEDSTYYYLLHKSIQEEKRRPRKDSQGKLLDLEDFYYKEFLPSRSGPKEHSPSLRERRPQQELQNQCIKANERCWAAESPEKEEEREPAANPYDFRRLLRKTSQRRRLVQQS", "assay": "SelectScreen kinase profiling, SSBK LanthaScreen Binding SP Technology", "conditions": "MYO3A (MYO3 alpha), 10 μM", "description": "as §1, §2, §3, §4, §5"}, "[18]": {"biological_target": "kinase named in conditions (Homo sapiens, UniProt Q8TD08)", "assay": "SelectScreen kinase profiling, SSBK LanthaScreen Binding SP Technology", "conditions": "MAPK15 (ERK7), 10 μM", "description": "as §1, §2, §3, §4, §5"}, "[19]": {"biological_target": "kinase named in conditions (Homo sapiens, UniProt Q99640)", "assay": "SelectScreen kinase profiling, SSBK LanthaScreen Binding SP Technology", "conditions": "PKMYT1, 10 μM", "description": "as §1, §2, §3, §4, §5"}, "[20]": {"biological_target": "kinase named in conditions (Homo sapiens, UniProt Q9NRM7)", "sequence (Q9NRM7 whole entry)": "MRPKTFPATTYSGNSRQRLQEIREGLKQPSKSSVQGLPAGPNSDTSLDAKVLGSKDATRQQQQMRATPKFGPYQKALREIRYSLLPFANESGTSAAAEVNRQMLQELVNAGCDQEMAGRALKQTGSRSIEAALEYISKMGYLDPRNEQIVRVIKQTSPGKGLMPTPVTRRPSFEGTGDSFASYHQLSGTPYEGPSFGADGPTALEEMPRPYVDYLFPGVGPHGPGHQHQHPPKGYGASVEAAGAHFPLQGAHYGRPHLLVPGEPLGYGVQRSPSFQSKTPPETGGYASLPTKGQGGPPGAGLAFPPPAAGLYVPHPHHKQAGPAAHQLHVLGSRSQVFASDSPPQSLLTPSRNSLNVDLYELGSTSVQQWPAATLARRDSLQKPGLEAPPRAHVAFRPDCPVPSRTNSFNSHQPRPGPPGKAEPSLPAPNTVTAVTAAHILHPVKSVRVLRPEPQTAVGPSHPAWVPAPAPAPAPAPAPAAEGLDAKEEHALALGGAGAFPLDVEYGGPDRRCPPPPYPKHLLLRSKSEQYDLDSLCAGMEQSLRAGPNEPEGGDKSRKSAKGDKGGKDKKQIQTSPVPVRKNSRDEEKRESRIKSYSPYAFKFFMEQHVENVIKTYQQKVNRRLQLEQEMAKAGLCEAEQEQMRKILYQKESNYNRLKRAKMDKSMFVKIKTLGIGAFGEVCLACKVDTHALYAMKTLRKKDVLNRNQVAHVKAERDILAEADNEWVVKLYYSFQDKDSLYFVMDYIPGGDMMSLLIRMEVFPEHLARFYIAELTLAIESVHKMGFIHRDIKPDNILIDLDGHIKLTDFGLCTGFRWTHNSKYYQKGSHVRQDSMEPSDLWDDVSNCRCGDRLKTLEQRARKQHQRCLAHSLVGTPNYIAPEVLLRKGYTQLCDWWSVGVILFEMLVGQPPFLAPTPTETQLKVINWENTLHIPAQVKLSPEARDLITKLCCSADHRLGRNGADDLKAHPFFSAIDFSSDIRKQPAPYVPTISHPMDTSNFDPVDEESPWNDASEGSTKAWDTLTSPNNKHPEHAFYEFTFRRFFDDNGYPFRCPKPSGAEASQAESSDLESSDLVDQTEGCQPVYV", "assay": "SelectScreen kinase profiling, SSBK LanthaScreen Binding SP Technology", "conditions": "LATS2, 10 μM", "description": "as §1, §2, §3, §4, §5"}, "[21]": {"tested_on": "47 human off-target liabilities", "assay": "DiscoverX Safety47 panel (78 functional assays)", "conditions": "@ 30 μM", "description": "(§6) Screening for off-target pharmacology across multiple drug target classes was performed in the DiscoverX Safety47 panel as the SAFETYscan E/IC50 ELECT service by Eurofins (San Diego CA, U.S.A.). Assay information and data are presented in the Supporting Information.\n(§7) Safety pharmacology studies\n(§8) Screening for off-target pharmacology across multiple drug target classes was performed in the DiscoverX Safety47™ panel as the SAFETYscan E/IC50 ELECT service by eurofins (San Diego CA, U.S.A.). The assays were performed utilizing the PathHunter enzyme fragment complementation (EFC) technology, FLIPR®-based cellular screening assays, KINOMEscan kinase binding assays, and a variety of enzymatic assays (78 assays)."}, "MAOA": {"biological_target": "T1, MAOA (Homo sapiens, UniProt P21397)", "T1 construct": "Eurofins (DiscoverX Safety47)", "assay": "Safety47 MAOA assay", "format": "biochemical", "description": "as §6, §7, §8"}, "CYP2D6": {"biological_target": "CYP2D6 (Homo sapiens, UniProt P10635)", "sequence (P10635 whole entry)": "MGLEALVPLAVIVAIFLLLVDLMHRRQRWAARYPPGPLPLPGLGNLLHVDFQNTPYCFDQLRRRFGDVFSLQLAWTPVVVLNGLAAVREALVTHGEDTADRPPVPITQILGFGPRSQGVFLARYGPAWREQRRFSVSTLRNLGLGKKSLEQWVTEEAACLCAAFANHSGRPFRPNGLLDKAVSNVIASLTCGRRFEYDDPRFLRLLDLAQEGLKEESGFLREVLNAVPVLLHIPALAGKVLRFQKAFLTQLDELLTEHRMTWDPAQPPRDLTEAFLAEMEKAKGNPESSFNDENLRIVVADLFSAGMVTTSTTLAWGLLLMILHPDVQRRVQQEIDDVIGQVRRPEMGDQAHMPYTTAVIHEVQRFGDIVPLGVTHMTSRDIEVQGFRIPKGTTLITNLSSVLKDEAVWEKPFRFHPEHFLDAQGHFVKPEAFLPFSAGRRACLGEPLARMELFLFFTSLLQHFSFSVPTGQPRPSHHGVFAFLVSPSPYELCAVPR", "assay": "CYP450 inhibition in HLM"}, "[22]": {"assay": "Metabolic stability in rat hepatocytes"}, "[23]": {"assay": "Permeability using Caco-2 cell monolayer", "conditions": "human"}, "Caco-2 cells": {"tested_on": "Caco-2 cells", "assay": "Permeability using Caco-2 cell monolayer", "conditions": "2.00 μM"}}, "note": "Read-outs that look alike come from different tables or passages of the source.", "data": [{"compound": "FC(F)(F)c1c(Cl)ccc(-n2ccnn2)c1Cl", "note": "[8l, 1-(2,4-Dichloro-3-(trifluoromethyl)phenyl)-1H-1,2,3-triazole]", "values": [{"measurement": "Wnt response in the absence of Notum", "setting": "Wnt signaling", "result": "maximal Wnt response at all concentrations tested"}, {"measurement": "inhibition at 10 µM", "setting": "[1]", "result": 8, "unit": "%"}, {"measurement": "inhibition at 10 µM", "setting": "[2]", "result": 6, "unit": "%"}, {"measurement": "inhibition at 10 µM", "setting": "[3]", "result": 8, "unit": "%"}, {"measurement": "inhibition at 10 µM", "setting": "[4]", "result": -3, "unit": "%"}, {"measurement": "inhibition at 10 µM", "setting": "[5]", "result": -3, "unit": "%"}, {"measurement": "inhibition at 10 µM", "setting": "[6]", "result": 7, "unit": "%"}, {"measurement": "inhibition at 10 µM", "setting": "[7]", "result": 15, "unit": "%"}, {"measurement": "inhibition at 10 µM", "setting": "[8]", "result": 10, "unit": "%"}, {"measurement": "inhibition at 10 µM", "setting": "[9]", "result": 0, "unit": "%"}, {"measurement": "inhibition at 10 µM", "setting": "[10]", "result": 13, "unit": "%"}, {"measurement": "% Inhibition mean", "setting": "[11]; DAPK1, 10 μM", "result": -8, "unit": "%"}, {"measurement": "% Inhibition mean", "setting": "[11]; IRAK1, 10 μM", "result": -10, "unit": "%"}, {"measurement": "% Inhibition mean", "setting": "[11]; LRRK2, 10 μM", "result": -12, "unit": "%"}, {"measurement": "% Inhibition mean", "setting": "[11]; LRRK2 G2019S, 10 μM", "result": 1, "unit": "%"}, {"measurement": "% Inhibition mean", "setting": "[11]; LRRK2 I2020T, 10 μM", "result": 1, "unit": "%"}, {"measurement": "% Inhibition mean", "setting": "[11]; LRRK2 R1441C, 10 μM", "result": 1, "unit": "%"}, {"measurement": "% Inhibition mean", "setting": "[11]; SPHK1, 10 μM", "result": -8, "unit": "%"}, {"measurement": "% Inhibition mean", "setting": "[11]; SPHK2, 10 μM", "result": 0, "unit": "%"}, {"measurement": "inhibition at 10 µM", "setting": "[12]", "result": 10, "unit": "%"}, {"measurement": "inhibition at 10 µM", "setting": "[13]", "result": 9, "unit": "%"}, {"measurement": "inhibition at 10 µM", "setting": "[14]", "result": 4, "unit": "%"}, {"measurement": "inhibition at 10 µM", "setting": "[15]", "result": 13, "unit": "%"}, {"measurement": "inhibition at 10 µM", "setting": "[16]", "result": 1, "unit": "%"}, {"measurement": "inhibition at 10 µM", "setting": "[17]", "result": -6, "unit": "%"}, {"measurement": "inhibition at 10 µM", "setting": "[18]", "result": 1, "unit": "%"}, {"measurement": "inhibition at 10 µM", "setting": "[19]", "result": 0, "unit": "%"}, {"measurement": "inhibition at 10 µM", "setting": "[20]", "result": 7, "unit": "%"}, {"measurement": "assays with >50% activity", "setting": "[21]", "result": "3/78"}, {"measurement": "IC50", "setting": "MAOA", "result": 28, "unit": "µM"}, {"measurement": "IC50", "setting": "CYP2D6; read-out: CYP inhibition IC50, 2D6, HLM", "result": "> 50", "unit": "µM"}, {"measurement": "IC50", "setting": "CYP2D6; read-out: IC50 CYP2D6/Dextromethorphan, (+)NADPH pre-incubation", "result": "> 50", "unit": "µM"}, {"measurement": "IC50", "setting": "CYP2D6; read-out: IC50 CYP2D6/Dextromethorphan, (-)NADPH pre-incubation", "result": "> 50", "unit": "µM"}, {"measurement": "half-life", "setting": "[22]", "result": 2.78, "unit": "h"}, {"measurement": "hepatocyte CLint", "setting": "[22]", "result": 8.3, "unit": "µL/min/1e6 cells"}, {"measurement": "recovery at 2 h, 2 µM", "setting": "[23]; Caco-2, pH 7.4, Caco-2 A to B % Recovery", "result": 89.1, "unit": "%"}, {"measurement": "Papp at 2 h, 2 μM", "setting": "[23]; Caco-2, pH 7.4, Caco-2 AB Papp, apical to basal", "result": 49.4, "unit": "×10⁻⁶ cm/s"}, {"measurement": "recovery at 2 h, 2 µM", "setting": "[23]; Caco-2, pH 7.4, Caco-2 B to A % Recovery", "result": 102, "unit": "%"}, {"measurement": "Papp at 2 h, 2 μM", "setting": "[23]; Caco-2, pH 7.4, Caco-2 BA Papp, basal to apical", "result": 30.3, "unit": "×10⁻⁶ cm/s"}, {"measurement": "Caco-2 AB Papp", "setting": "Caco-2 cells; apical to basal", "result": "49 10-6 cm/sec"}, {"measurement": "Caco-2 BA Papp", "setting": "Caco-2 cells; basal to apical", "result": "30 10-6 cm/sec"}]}]}
